Measured values taken from ChEMBL document CHEMBL1201862, “PubChem BioAssay data set” (2004).
Activity calls are given as the source filed them. Rule as the data show it, for most assays here: actives have a measured EC50 and inactives only a lower limit.

Legend:
[1] = cytotoxicity toward NIH3T3 fibroblasts, dose response, counter-screen, cell-based, ATP luminescence, mouse fibroblasts (AID 2010); type: functional;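 also: cells exposed to compound for about 90 hours before reading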
[2] = biological target: G-protein coupled receptor 35 (Homo sapiens, UniProt Q9HC97); experiment: GPR35 antagonists blocking zaprinast-driven arrestin recruitment, primary screen, imaging, U2OS, beta-arrestin-GFP, zaprinast agonist (AID 2058); type: functional;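 also: antagonist potency meaning inhibition of agonist-induced arrestin redistribution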
Chain of G-protein coupled receptor 35 (Q9HC97 whole entry): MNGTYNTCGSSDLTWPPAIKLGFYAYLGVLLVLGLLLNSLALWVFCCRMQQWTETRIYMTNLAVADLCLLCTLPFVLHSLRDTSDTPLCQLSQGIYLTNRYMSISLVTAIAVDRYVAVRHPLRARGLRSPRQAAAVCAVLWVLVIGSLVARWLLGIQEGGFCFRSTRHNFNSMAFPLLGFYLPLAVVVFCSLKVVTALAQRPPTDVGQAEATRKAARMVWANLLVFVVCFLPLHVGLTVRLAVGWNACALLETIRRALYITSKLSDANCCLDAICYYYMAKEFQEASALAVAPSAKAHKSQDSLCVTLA

[3] = NIH-3T3 fibroblast cytotoxicity, dose response, cytotoxicity control, cell-based, fluorescence, Alamar Blue, secondary assay (AID 2327); type: functional;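 also: NIH-3T3 mouse fibroblasts cultured with fluconazole at 8 µg/mL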
[4] = biological target: G-protein coupled receptor 55 (Homo sapiens, UniProt Q9Y2T6); experiment: GPR55 antagonists, SAR follow-up, counter-screen for GPR35 antagonist project, imaging, image-based (AID 2397); type: functional
Chain of G-protein coupled receptor 55 (Q9Y2T6 whole entry): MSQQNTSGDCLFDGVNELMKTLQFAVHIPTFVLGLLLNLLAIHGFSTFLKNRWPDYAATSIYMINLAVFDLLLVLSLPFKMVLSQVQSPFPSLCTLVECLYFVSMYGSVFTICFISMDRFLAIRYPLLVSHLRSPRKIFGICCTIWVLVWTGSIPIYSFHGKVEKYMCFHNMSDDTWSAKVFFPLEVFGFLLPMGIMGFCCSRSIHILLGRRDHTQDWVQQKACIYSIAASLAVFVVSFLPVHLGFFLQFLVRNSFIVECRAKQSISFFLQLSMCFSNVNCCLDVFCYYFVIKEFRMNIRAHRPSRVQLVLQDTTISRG

[5] = C. albicans growth with fluconazole, confirmation, fluorescence, retest (AID 2467); type: functional, cell-based
[6] = inhibitors of intracellular T. cruzi replication, confirmation, NIH3T3 host cells, beta-gal luminescence (AID 2044); type: functional, cell-based;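 also: intracellular parasites grown in NIH/3T3 mouse fibroblasts as host cells; luminescent beta-galactosidase reporter signal from transgenic T. cruzi replicating inside host cells; inhibitors lower the luminescence signal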
[7] = biological target: T1, Voltage-gated N-type calcium channel alpha-1B subunit/Amyloid beta A4 precursor protein-binding family A member 1 (Homo sapiens, UniProt Q00975+Q02410); experiment: disruptors of Mint-PDZ/N-type channel peptide interaction – biochemical, HTRF, set 2, SAR follow-up (AID 434980); type: functional
T1 sequence (Q00975 whole entry): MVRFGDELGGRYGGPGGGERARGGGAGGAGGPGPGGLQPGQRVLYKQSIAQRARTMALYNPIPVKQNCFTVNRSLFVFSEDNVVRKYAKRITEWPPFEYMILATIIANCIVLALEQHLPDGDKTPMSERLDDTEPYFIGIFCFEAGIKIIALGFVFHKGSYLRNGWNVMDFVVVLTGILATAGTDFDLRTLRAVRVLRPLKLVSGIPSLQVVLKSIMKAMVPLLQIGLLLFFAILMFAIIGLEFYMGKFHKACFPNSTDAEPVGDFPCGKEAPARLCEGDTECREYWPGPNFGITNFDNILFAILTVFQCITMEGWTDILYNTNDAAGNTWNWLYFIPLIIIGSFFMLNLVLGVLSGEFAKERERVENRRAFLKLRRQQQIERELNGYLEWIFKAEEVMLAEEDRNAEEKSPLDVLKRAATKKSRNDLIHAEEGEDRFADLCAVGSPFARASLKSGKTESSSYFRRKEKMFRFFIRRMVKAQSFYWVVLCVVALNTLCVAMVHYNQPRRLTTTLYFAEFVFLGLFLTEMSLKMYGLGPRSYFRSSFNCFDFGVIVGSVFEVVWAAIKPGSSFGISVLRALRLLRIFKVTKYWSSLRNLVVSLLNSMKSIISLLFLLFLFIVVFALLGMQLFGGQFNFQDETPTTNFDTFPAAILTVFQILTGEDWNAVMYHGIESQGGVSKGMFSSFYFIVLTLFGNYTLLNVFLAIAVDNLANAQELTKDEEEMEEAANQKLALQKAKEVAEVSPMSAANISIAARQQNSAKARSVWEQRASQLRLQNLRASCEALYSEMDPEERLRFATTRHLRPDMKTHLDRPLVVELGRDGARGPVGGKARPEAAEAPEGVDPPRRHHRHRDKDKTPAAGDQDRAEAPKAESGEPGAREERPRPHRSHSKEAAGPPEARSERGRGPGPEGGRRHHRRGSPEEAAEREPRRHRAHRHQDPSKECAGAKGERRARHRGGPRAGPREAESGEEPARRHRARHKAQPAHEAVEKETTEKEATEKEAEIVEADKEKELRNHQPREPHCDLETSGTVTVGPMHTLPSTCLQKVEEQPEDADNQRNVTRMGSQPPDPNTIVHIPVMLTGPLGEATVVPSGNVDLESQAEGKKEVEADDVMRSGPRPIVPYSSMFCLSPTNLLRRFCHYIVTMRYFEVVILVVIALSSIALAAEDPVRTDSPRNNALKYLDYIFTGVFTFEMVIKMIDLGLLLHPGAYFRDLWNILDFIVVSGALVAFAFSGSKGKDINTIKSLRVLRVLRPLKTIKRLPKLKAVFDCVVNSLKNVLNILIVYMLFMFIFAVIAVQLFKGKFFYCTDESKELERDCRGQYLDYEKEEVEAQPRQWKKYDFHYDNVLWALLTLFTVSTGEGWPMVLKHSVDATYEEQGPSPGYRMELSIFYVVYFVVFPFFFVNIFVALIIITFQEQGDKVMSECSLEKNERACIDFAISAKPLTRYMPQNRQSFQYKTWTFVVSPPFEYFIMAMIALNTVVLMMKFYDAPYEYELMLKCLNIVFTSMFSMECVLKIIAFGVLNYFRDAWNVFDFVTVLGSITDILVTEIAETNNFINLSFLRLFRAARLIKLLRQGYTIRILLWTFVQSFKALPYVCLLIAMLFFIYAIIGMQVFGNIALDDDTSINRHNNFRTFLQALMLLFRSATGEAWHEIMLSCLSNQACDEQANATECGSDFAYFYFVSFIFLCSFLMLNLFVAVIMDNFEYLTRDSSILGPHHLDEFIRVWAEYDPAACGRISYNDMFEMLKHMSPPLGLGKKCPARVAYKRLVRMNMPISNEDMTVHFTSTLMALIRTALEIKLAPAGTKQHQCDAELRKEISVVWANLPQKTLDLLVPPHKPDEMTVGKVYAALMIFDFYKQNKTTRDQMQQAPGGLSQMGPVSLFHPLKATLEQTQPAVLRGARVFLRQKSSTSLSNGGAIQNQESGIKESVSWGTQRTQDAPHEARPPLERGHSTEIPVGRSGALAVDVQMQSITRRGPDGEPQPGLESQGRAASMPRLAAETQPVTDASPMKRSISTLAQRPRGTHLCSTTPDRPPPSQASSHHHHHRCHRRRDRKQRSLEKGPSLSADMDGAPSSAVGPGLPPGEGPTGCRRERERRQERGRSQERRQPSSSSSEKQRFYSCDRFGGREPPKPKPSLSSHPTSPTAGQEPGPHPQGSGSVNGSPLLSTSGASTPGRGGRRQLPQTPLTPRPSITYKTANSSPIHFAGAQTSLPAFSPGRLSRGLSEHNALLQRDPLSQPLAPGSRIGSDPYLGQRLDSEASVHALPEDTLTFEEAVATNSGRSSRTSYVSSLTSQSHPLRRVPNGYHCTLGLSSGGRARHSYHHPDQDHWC
T1 sequence (Q02410 whole entry): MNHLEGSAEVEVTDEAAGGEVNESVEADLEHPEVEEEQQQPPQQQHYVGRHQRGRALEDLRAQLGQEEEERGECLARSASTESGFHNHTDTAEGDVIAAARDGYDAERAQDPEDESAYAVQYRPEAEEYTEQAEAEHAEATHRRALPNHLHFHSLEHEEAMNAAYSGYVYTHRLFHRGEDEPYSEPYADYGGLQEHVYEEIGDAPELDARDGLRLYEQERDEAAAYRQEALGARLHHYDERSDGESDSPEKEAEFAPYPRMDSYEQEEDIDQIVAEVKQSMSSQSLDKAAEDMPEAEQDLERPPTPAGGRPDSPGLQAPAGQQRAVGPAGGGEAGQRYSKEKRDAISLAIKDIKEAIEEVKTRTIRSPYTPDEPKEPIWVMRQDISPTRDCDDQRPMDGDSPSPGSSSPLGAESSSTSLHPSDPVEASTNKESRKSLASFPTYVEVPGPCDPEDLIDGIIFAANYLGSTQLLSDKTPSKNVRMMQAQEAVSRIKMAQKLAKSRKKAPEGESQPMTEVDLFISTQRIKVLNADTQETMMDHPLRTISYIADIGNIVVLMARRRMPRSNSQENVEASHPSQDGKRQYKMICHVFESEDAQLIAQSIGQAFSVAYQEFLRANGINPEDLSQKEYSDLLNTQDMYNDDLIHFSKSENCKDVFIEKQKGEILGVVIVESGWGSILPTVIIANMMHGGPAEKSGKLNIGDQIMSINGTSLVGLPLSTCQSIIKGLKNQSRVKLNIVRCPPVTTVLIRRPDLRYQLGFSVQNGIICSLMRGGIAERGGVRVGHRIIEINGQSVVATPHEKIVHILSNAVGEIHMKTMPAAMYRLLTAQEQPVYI

[8] = biological target: T1, Voltage-gated N-type calcium channel alpha-1B subunit/Amyloid beta A4 precursor protein-binding family A member 1; experiment: disruptors of Mint-PDZ/N-type channel peptide interaction – biochemical, HTRF, SAR follow-up (AID 2489); type: functional
[9] = biological target: SUMO E1/E2 (Homo sapiens, UniProt P63279+Q9UBE0+Q9UBT2); experiment: SAR analysis of SUMOylation using HTRF in an in-Vitro dose response assay. [Related pubchem assays (depositor defined):AID2006, AID2011, AID2018, AID2069, AID2658]; type: functional
Chain of SUMO E1/E2 (Q9UBE0 whole entry): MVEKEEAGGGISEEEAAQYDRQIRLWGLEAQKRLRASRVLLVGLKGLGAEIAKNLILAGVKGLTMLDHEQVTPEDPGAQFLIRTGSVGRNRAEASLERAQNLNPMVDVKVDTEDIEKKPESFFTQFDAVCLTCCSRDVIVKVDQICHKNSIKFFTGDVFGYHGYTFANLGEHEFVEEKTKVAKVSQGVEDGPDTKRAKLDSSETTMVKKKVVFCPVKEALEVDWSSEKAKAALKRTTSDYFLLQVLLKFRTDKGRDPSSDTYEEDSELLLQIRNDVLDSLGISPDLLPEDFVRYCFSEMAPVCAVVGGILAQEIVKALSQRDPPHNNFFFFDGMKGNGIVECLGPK
Chain of SUMO E1/E2 (Q9UBT2 whole entry): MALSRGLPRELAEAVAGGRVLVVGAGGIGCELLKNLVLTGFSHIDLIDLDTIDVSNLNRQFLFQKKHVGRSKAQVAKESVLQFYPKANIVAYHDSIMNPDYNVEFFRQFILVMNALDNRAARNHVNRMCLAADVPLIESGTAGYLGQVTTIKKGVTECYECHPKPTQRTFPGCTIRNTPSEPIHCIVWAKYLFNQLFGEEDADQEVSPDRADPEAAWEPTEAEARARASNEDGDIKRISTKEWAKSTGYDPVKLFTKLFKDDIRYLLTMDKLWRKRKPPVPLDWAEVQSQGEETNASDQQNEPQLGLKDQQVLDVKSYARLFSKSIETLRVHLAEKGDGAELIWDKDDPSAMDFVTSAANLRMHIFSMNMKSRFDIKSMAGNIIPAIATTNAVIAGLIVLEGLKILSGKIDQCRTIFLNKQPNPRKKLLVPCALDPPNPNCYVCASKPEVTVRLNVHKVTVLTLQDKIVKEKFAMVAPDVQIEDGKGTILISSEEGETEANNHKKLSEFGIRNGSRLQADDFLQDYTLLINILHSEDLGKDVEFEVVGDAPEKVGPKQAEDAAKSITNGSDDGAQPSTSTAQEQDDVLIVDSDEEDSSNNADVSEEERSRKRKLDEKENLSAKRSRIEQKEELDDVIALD
Chain of SUMO E1/E2 (P63279 whole entry): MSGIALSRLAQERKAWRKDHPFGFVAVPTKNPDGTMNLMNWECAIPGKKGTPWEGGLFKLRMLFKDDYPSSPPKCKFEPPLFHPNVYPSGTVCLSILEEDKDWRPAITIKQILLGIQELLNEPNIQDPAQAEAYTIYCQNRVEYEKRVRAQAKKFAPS

[10] = system: Streptococcus; experiment: Group A Streptococcus viability loss, dose response, counter-screen for streptokinase expression inhibitor project, luminescence, BacTiterGlo (AID 1915); type: functional, organism-based;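 also: potency for reduction of bacterial viability or growth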
[11] = system: Streptococcus sp. 'group A'; experiment: growth inhibition of control SK(-) GAS strain, dose response, counter-screen for streptokinase expression inhibitor project, luminescence, kanamycin, BacTiterGlo, confirmation (AID 1900); type: functional, organism-based
[12] = system: BJ; experiment: cytotoxicity toward BJ-TERT fibroblasts, dose response, cell-based, RAS-independent, luminescence (AID 1933); type: functional; conditions: Homo sapiens
[13] = biological target: T2, Replicative DNA helicase DnaB (Mycobacterium tuberculosis, UniProt P9WMR3); experiment: DnaB intein splicing inhibitors, dose response, biochemical, cell-free fluorescence (AID 449749); type: functional
T2 sequence (P9WMR3 whole entry): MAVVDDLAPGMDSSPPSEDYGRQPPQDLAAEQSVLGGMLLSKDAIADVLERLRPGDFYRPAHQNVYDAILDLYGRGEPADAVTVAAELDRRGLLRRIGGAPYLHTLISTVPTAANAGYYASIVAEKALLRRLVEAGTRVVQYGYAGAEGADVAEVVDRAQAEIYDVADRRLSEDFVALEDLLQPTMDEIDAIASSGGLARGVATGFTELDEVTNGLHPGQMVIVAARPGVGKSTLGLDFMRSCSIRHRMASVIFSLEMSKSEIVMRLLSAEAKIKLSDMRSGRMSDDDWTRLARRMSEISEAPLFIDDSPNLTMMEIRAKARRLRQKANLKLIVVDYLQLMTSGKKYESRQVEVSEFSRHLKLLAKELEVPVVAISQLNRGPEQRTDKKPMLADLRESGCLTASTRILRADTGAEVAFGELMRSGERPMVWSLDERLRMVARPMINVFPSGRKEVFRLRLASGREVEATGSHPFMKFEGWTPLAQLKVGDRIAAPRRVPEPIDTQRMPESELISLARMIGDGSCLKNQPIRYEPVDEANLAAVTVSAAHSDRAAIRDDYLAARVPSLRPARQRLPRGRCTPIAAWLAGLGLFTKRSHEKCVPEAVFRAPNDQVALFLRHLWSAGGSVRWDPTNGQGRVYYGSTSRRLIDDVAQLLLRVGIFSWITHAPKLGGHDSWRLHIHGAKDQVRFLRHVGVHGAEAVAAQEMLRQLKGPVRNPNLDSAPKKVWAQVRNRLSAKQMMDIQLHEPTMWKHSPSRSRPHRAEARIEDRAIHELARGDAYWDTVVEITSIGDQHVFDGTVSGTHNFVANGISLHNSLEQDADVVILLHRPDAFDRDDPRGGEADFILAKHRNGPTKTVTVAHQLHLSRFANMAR

[14] = Counterscreen for AddAB inhibitors: absorbance-based bacterial cell-based high throughput dose response assay for inhibitors of bacterial viability. [Related pubchem assays (depositor defined):AID435030, AID449728, AID449731, AID488942, AID488955, AID488956]; type: functional
[15] = biological target: T3, Protein RecA (Mycobacterium tuberculosis, UniProt P9WHJ3); experiment: Fluorescence Cell-Free Homogeneous Dose Retest to Identify Inhibitors of RecA-Intein Splicing Activity. [Related pubchem assays (depositor defined):AID2097, AID2223, AID489010, AID492950]; type: functional
T3 sequence (P9WHJ3 whole entry): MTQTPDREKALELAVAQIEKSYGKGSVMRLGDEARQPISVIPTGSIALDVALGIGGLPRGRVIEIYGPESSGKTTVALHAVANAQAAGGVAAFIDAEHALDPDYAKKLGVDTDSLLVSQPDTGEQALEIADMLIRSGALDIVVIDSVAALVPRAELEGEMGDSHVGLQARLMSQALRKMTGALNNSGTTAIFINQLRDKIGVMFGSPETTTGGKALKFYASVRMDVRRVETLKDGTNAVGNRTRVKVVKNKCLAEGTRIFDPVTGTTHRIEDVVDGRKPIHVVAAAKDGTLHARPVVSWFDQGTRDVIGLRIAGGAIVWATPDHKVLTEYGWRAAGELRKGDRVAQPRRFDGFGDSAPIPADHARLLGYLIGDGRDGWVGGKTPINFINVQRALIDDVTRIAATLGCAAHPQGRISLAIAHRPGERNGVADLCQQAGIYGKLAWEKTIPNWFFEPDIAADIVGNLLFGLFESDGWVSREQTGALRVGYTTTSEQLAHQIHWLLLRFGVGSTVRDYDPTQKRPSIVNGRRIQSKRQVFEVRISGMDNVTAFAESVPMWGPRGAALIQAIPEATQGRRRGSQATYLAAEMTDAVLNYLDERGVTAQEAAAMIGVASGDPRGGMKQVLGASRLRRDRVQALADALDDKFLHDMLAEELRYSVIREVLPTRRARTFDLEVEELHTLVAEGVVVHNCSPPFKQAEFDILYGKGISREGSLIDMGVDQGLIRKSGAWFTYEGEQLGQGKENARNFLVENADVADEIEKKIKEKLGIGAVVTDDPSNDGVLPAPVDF

[16] = inhibitors of firefly luciferase expression or activity, dose response, H4 neuroglioma cells, luminescence (AID 1990); type: functional, cell-based
[17] = cytotoxicity toward DRD oncogenic fibroblasts, dose response, cell-based, non-viral oncogenic, luminescence (AID 1934); type: functional; conditions: Homo sapiens
[18] = system: BJ; experiment: cytotoxicity toward BJ-TERT-LT-ST fibroblasts, dose response, cell-based, RAS-independent, luminescence (AID 1935); type: functional; conditions: Homo sapiens;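 also: BJ fibroblasts immortalized with TERT plus LT and ST oncogenes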
[19] = inhibitors of SNCA 5'UTR-driven reporter translation, confirmation, H4 neuroglioma cells, luminescence (AID 1988); type: functional, cell-based
[20] = luciferase reporter signal reduction – luminescence, H4-C neuroglioblastoma cells, dose response (AID 2458); type: functional, cell-based;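 also: H4 neuroglioblastoma cells stably carrying a luciferase reporter gene fusion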
[21] = Luminescence Cell-Based Dose Response HTS to Identify Inhibitors of 5'UTR Stem-Loop Driven Prion Protein mRNA Translation in H4 Neuroglioblastoma Cells. [Related pubchem assays: 1827 (Project Summary), 1813 (Primary HTS)]; type: functional
[22] = cytotoxicity in HEK-293T cells, dose response, cytotoxicity control for TCR NF-kB inhibitor project, luminescence, T-cell screen hits (AID 489026); type: functional, cell-based;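 also: cells exposed to compound about 14 hours before the viability readout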
[23] = biological target: Exodeoxyribonuclease V (Escherichia coli (strain K12), UniProt P04993+P07648+P08394); experiment: E. coli RecBCD inhibitors, dose response, counter-screen for AddAB inhibitor project, absorbance, V66 E. coli, mutant T4 phage (AID 492957); type: functional, cell-based, Escherichia coli str. K-12 substr. MG1655
[24] = biological target: T4, Short transient receptor potential channel 4 (Mus musculus, UniProt Q9QUQ5); experiment: mouse TRPC4 channel activators, dose response, cell-based, HEK293 TRPC4/mu-opioid, Fluo-4 calcium (AID 434937); type: functional
T4 sequence (Q9QUQ5 whole entry): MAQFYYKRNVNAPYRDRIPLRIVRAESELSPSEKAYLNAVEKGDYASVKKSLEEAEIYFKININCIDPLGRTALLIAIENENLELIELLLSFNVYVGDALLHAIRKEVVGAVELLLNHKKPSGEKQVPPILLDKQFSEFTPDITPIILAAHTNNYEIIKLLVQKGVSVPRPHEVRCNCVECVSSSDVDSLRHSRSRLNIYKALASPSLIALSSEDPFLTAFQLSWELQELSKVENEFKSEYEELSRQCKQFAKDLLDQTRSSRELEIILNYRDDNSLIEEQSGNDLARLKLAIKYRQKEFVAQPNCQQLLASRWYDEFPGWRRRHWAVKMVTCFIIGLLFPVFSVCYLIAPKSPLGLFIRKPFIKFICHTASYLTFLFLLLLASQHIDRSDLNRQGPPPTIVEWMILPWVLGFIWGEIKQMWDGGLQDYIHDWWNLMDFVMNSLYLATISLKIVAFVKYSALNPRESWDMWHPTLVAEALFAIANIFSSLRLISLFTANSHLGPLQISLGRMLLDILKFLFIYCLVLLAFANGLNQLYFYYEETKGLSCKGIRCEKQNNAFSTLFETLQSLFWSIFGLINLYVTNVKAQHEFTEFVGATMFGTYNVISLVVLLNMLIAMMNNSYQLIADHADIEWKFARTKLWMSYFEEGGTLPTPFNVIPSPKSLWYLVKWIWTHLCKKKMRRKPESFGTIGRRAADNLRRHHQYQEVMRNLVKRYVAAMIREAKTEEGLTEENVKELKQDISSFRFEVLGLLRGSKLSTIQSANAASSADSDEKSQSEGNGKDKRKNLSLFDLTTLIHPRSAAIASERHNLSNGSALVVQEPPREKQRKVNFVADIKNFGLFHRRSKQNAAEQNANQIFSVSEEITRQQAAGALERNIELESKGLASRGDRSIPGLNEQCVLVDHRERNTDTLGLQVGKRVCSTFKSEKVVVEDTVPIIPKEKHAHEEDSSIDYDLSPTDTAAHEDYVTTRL

[25] = inhibitors of SNCA 5'UTR-driven translation, confirmation, luminescence, H4 neuroglioblastoma cells, dose confirmation (AID 2454); type: functional, cell-based;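 also: H4 neuroglioblastoma cells carrying an alpha-synuclein 5'UTR luciferase reporter; potency for inhibition of the luciferase signal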
[26] = system: BJ; experiment: cells; type: functional, cell-based, Homo sapiens; conditions: Homo sapiens, BJ
[27] = cells; type: functional, cell-based

For `Cc1ccc2[nH]c(C)c(/C=C/c3cc[n+](C)cc3)c2c1`, the EC50 [1] was > 30 µM (not active), the IC50 [2] was 1.62 µM (active) and the EC50 [3] was > 150 µM (inactive). For the same compound, the IC50 [4] was 1.57 µM (active), the EC50 [5] was 1.45 µM (active) and the EC50 [6] was 725 nM (active).
In the case of `O=C(COC(=O)c1cc(-c2ccco2)nc2ccccc12)NCc1cccc(Cl)c1`, the IC50 [7] was 30.7 µM (active), the IC50 [8] was 23.7 µM (active) and the IC50 [9] was 4.63 µM (active).
For `Cc1ccc(C[n+]2c(-c3ccc(C)cc3)cc(-c3ccc(C)cc3)cc2-c2ccc(C)cc2)cc1.[O-][Cl+3]([O-])([O-])[O-]`, the EC50 [10] was 7.91 µM (active), the EC50 [11] was 3.71 µM (active) and the EC50 [12] was 1.07 µM (inconclusive). For the same compound, the AC50 [13] was 3.61 µM (active), the IC50 [14] was 18.5 µM (inactive) and the EC50 [15] was 8.2 µM (active). For the same compound, the EC50 [16] was < 100 nM (active), the EC50 [17] was 1.31 µM (active) and the EC50 [18] was 2.7 µM (inconclusive). The EC50 [19] was < 100 nM (active), the EC50 [20] was 1.62 µM (active) and the EC50 [21] was 4.41 µM (active). For the same compound, the IC50 [22] was 25.9 µM (inactive), the IC50 [23] was 20.1 µM (inactive) and the EC50 [24] was 5.31 µM (active). For the same compound, the EC50 [25] was 793 nM (active), the EC50 [26] was 1.23 µM (inconclusive) and the EC50 [27] was 3.46 µM (active).
